Measurements as given in patent publication US9611230B2, “1,3,4-oxadiazole benzoic acid compounds and their use for nonsense suppression and the treatment of disease” (PTC Therapeutics, Inc., priority 2004, dated 2017).
Several values for one entry are separate records, joined by “and”; a condition that tells them apart may be missing. Equal values may be shown once.

Tested on: full-length luciferase protein produced by suppression of the premature termination codon
Assay: Western blot of full-length luciferase after immunoprecipitation (epitope-tagged nonsense constructs)
Assay type: cell-based, Human
Conditions: printed in the UAAA column of Table 3
Description: The nonsense suppression activity in an assay as described above is shown in the Table 3 below, for a construct with a UAG nonsense mutation at position 190, followed by an adenine nucleotide in-frame, (UAGA); and a construct with a UAA nonsense mutation at position 190, followed by an adenine nucleotide in-frame, (UAAA).
Another assay of the present invention can evaluate compounds that promote nonsense mutation suppression. The luciferase constructs described above in FIG. 1 are engineered to harbor two epitope tags in the N-terminus of the luciferase protein. Based on luciferase protein production, these constructs qualitatively assess the level of translation-readthrough. The presence of the full-length luciferase protein produced by suppression of the premature termination codon is measured by immunoprecipitation of the suppressed luciferase protein (using an antibody against a His tag) followed by western blotting using an antibody against the second epitope (the Xpress™ epitope; Invitrogen®; Carlsbad, Calif.). These constructs are depicted in FIG. 2.
Cells that harbor the constructs of FIG. 2 show increased full-length protein production when treated with a compound of the present invention. After treatment for 20 hours, cells containing the constructs of FIG. 2 are collected and an antibody recognizing the His epitope is used to immunoprecipitate the luciferase protein. Following immunoprecipitation, western blotting is performed using the antibody to the Xpress™ epitope (Invitrogen®; Carlsbad, Calif.) to detect the truncated luciferase (produced when no nonsense suppression occurs) and to detect the full-length protein (produced by suppression of the nonsense codon). Treatment of cells with a test compound produces full-length protein and not a readthrough protein (See e.g. FIG. 3). The readthrough protein is produced if suppression of the normal termination codon occurs. Compounds of the present invention suppress the premature, i.e. nonsense mutation, but not the normal termination codon in the luciferase mRNA.

| SMILES | western blot signal (POS WB) |
| --- | --- |
| CCOc1ccc(-c2cnc(-c3cccc(C(=O)O)c3)o2)cc1 [Compound 595] | POSWB |
| O=C(O)c1ccc(-c2ncc(-c3ccc(F)cc3F)o2)cc1 [Compound No. 548, 4-[5-(2,4-difluorophenyl)oxazol-2-yl]benzoic acid] | POSWB |
| O=C(O)c1cccc(-c2cc(-c3ccc(Cl)cc3)on2)c1 [Compound No. 479, 3-[5-(4-chlorophenyl)isoxazol-3-yl]benzoic acid] | POSWB |

Tested on: not given
Assay: not given
Conditions: not given

| SMILES | melting point |
| --- | --- |
| O=C(O)c1cccc(-c2cc(-c3ccccc3F)on2)c1 [Compound 463] | 221 to 222 °C |
| CN(C)c1ccc(-c2nnc(-c3cccc(C(=O)O)c3)o2)cc1 [Compound 4] | 268 to 270 °C |
| O=C(O)c1cccc(-c2cc(-c3ccccc3F)no2)c1 [Compound 501] | 231 to 232 °C |
| Cc1ccc(S(=O)(=O)Nc2cccc(-c3nnc(-c4ccc(C(=O)O)cc4)o3)c2)cc1 [Compound 13, 4-{5-[3-(toluene-4-sulfonylamino)phenyl]-[1,3,4]oxadiazol-2-yl}benzoic acid] | > 275 °C |
| CC(C)c1ccc(-c2nnc(-c3cccc(C(=O)O)c3)o2)cc1 [Compound 6, 3-[5-(4-isopropylphenyl)-[1,3,4]oxadiazol-2-yl]benzoic acid] | 202 to 204 °C |
| O=C(O)c1cccc(-c2nc(-c3cccs3)n[nH]2)c1 [Compound 462] | 282 to 285 °C |
| COc1ccc(-c2cc(-c3ccc(C(=O)O)cc3)no2)cc1 [Compound 532] | 298 to 300 °C |
| O=C(O)c1cccc(-c2cc(-c3ccc(F)cc3F)on2)c1 [Compound 478] | 260 to 262 °C |
| Cc1ccc(-c2noc(-c3cccc(C(=O)O)c3)n2)cc1 [Compound 512] | 243 to 244 °C |
| O=C(O)c1ccc(-c2cc(-c3ccc(Cl)cc3)on2)cc1 [Compound 533] | 273 to 275 °C |
| O=C(O)c1cccc(-c2cc(-c3cccc(F)c3)on2)c1 [Compound 475] | 242 to 243 °C |
| O=C(O)c1cccc(-c2nnc(-c3ccc4cc[nH]c4c3)o2)c1 [Compound 317] | > 290 °C (dec.) |
| O=C(O)c1cccc(-c2nc(-c3ccc(OC(F)(F)F)cc3)no2)c1 [Compound 511] | 217 to 218 °C |
| O=C(O)c1ccc(-c2ncc(-c3cccc(C(F)(F)F)c3)o2)cc1 [Compound 543] | 286 to 287 °C |
| O=C(O)c1cccc(-c2cc(-c3ccc(CO)cc3)on2)c1 [Compound 575] | 248 to 250 °C |
| O=C(O)c1ccc(-c2cc(-c3ccc(F)cc3)on2)cc1 [Compound 530] | 318 to 319 °C |
| O=C(O)c1cccc(-c2nc(-c3ccc(F)cc3)n[nH]2)c1 [Compound 426] | > 310 °C |
| COC(=O)c1cccc(-c2cc(-c3ccccc3F)on2)c1 [Compound 464] | 112 to 113.5 °C |
| Cc1ccc(-c2cc(-c3ccc(C(=O)O)cc3)no2)cc1 [Compound 534] | 297.5 to 299 °C |
| O=C(O)c1ccc(-c2ncc(-c3cccc(Cl)c3)o2)cc1 [Compound 556] | 272 to 274 °C |
| O=C(O)c1cccc(-c2cc(-c3ccc(F)cc3)no2)c1 [Compound 504] | 273 to 274.5 °C |
| O=C(O)c1cccc(-c2nnc(-c3ccc(Br)nc3)o2)c1 [Compound 293] | 274 to 275 °C |
| CC(C)c1ccc(-c2coc(-c3cccc(C(=O)O)c3)n2)cc1 [Compound 276] | 235 to 237 °C |

Results, then the molecule that gave them:

| melting point | SMILES |
| --- | --- |
| 223 to 224 °C | CCOc1ccc(-c2cnc(-c3cccc(C(=O)O)c3)o2)cc1 [Compound 595] |
| 298 to 299 °C and 301 to 302 °C | O=C(O)c1ccc(-c2ncc(-c3ccc(F)cc3F)o2)cc1 [Compound No. 548, 4-[5-(2,4-difluorophenyl)oxazol-2-yl]benzoic acid] |
| 170 to 172 °C | CN(C)c1ccccc1-c1nnc(-c2cccc(C(=O)O)c2)o1 [Compound 605] |
| 270.5 to 272 °C | O=C(O)c1cccc(-c2cc(-c3ccc(F)cc3)[nH]n2)c1 [Compound No. 552, 3-[5-(4-fluorophenyl)-1H-pyrazol-3-yl]benzoic acid] |
| 293 to 295 °C | O=C(O)c1cccc(-c2cc(-c3ccc(Cl)cc3)on2)c1 [Compound No. 479, 3-[5-(4-chlorophenyl)isoxazol-3-yl]benzoic acid] |
| 210 to 211 °C | O=C(O)c1cccc(-c2ncc(-c3cccc(OC(F)(F)F)c3)o2)c1 [Compound 587] |
| 174 to 175 °C | CCc1ccc(-c2cnc(-c3cccc(C(=O)O)c3)o2)cc1 [Compound 590] |
| 240 to 242 °C | Cc1cccc(-c2ccc(-c3nnc(-c4cccc(C(=O)O)c4)o3)cc2)c1 [Compound No. 281, 3-[5-(3′-methylbiphenyl-4-yl)-[1,3,4]oxadiazol-2-yl]benzoic acid] |
| 233 to 234 °C | CC(C)c1ccc(-c2cnc(-c3ccc(C(=O)O)cc3)o2)cc1 [Compound 635] |
| 191 to 193 °C | O=C(O)Cc1ccc(-c2ncc(-c3ccc(F)cc3F)o2)cc1 [Compound 650] |
| 193 to 195 °C | CC(C)c1ccc(-c2ncc(-c3cccc(C(=O)O)c3)o2)cc1 [Compound No. 320, 3-[2-(4-isopropylphenyl)-oxazol-5-yl]-benzoic acid] |
| 236 to 239 °C | CC(C)c1ccc(-c2coc(-c3cccc(C(=O)O)c3)c2C(=O)O)cc1 [Compound No. 314, 2-(3-carboxyphenyl)-4-(4-isopropylphenyl)furan-3-carboxylic acid] |
| 177 to 178 °C | CN(C)c1ccccc1-c1nnc(-c2ccc(C(=O)O)cc2)o1 [Compound 601] |
| 245 to 246 °C | CCOc1ccc(-c2cnc(-c3ccc(C(=O)O)cc3)o2)cc1 [Compound 638] |
| 220 to 222 °C | O=C(O)c1cccc(-c2ncc(-c3cccc(Cl)c3)o2)c1 [Compound 583] |
